Assay results published in a melting point compilation (Tetko et al.; mined from patent text by program, amines drawn as free bases though some values may be those of a salt).

Row | Compound | melting point
1 | Fc1ccc(C(CCCN2CCC(c3nn(-c4ccccc4)c4cc(F)ccc34)CC2)c2ccc(F)cc2)cc1 | 113 to 115 °C
2 | CC(C)(C)OC(=O)NC1CCN(CC(F)(F)F)CC1 | 99.2 to 99.8 °C
3 | Nc1c(F)c(F)c(F)c(F)c1NC(=S)Nc1c(Cl)cccc1Cl | > 300 °C
4 | COc1cc(OC)c2c(=O)[nH]c(-c3cccc(-c4ccc(S(C)=O)cc4)c3)nc2c1 (centres undefined) | > 300 °C
5 | CCS(=O)(=O)Nc1cc(N=C=S)c(F)cc1Cl | 104 to 105 °C
6 | CCOC(=O)N1CCN(c2ccc(C(=O)CCc3ccc(N)cc3)cc2)CC1 | 106 to 107 °C
7 | Cc1c(N2C[C@@H]3[C@@H](O)CCN3C2=O)ccc(C#N)c1Cl | 148 to 149 °C
8 | O=C(Nc1cccc(S(=O)(=O)NC2CC2)c1)c1cnn2c(C(F)(F)F)cc(-c3ccc(Cl)c(Cl)c3)nc12 | 248 °C
9 | Cn1cccc1C(=O)C(C#N)C(=O)Nc1c(Cl)cccc1Cl (centres undefined) | 196 to 199 °C
10 | COc1cc(CN[C@H]2CC[C@H](Nc3ccnc4cc(Cl)ccc34)CC2)cc(OC)c1 | 150 °C
11 | O=C(O)Cc1ccnc2c(NC(=O)c3c(Cl)cccc3Cl)cccc12 | 228 to 230 °C
12 | CC1=CC(c2cccc([N+](=O)[O-])c2)C(C(=O)O)=NN1 (centres undefined) | 149 °C
13 | C=CCS(=O)(=O)c1ccc(NN=C(C)C)cc1 | 105 to 108 °C
14 | COc1ccc(C=O)c(O)c1Cl | 114 to 117 °C
15 | O=C1O[C@@H](CO)CN1c1ccc(C2=CCSCC2)c(F)c1 | 119 to 122 °C
16 | ClCCOc1c2ccccc2c(OCCCl)c2ccccc12 | 143 to 145 °C
17 | CC1CCC(C(C)C)C(OC(=O)C(=O)Nc2nc(-c3ccccc3)cs2)C1 (centres undefined) | 98 to 100 °C
18 | CN(CC(=O)Nc1ccccc1)C(=O)CN1CCCC1=O | 145 to 146 °C
19 | OC(Cc1ccc(Cl)cc1Cl)(Cn1cnnc1)c1ccc(-c2ccccc2)cc1 (centres undefined) | 260 °C
20 | CN1CCN(c2cccc(Nc3ccc(-c4ccoc4)cc3N)c2)CC1 | 129 to 130 °C
21 | CCOC(=O)C(=O)c1cc(Cl)c(C)cc1NC(=O)OC(C)(C)C | 111 °C
22 | Cc1cc(-c2cc(C(F)(F)F)n3ncc(-c4nc(-c5ccc(S(N)(=O)=O)cc5)no4)c3n2)ccc1C(F)(F)F | 273 °C
23 | CCCc1nc2c(ccc3[nH]c4cnc(C(=O)OC(C)C)c(C)c4c32)o1 | 223 to 224 °C
24 | O=C(CCc1ccc(NC(=O)C(F)(F)F)c([N+](=O)[O-])c1)N1CCCCC1 | 102 to 103 °C
25 | CC(C)=Cc1ccc(/C=C/CCl)cc1 | 48 to 50 °C
26 | FC(F)(F)c1cc(-c2ccc(Cl)c(Cl)c2)nc2c(-c3cccnc3)cnn12 | 224 °C

Row | Compound | melting point
27 | CN1C(=O)C2(COc3cc4c(cc32)OCCO4)c2c(NC(=O)C3CCCC3)cccc21 (centres undefined) | 196 to 198 °C
28 | NC1N=C(c2ccccc2)C=CS1 (centres undefined) | 137 °C
29 | CS(=O)(=O)c1nc(OCc2ccccc2)cc(C(F)(F)F)n1 | 115 to 118 °C
30 | CC(CN(C)C)Nc1ccnc2cc(Cl)ccc12 (racemic) | 168 to 170 °C
31 | CCCCN(Cc1ccc(-c2ccccc2-c2nnnn2C(c2ccccc2)(c2ccccc2)c2ccccc2)cc1)c1nc(C)ccc1C(=O)OCC | 120 to 122 °C
32 | CCc1nn(Cc2n[nH]c(=O)o2)c(CC)c1Oc1cc(Cl)cc(Cl)c1 | 138 to 142 °C
33 | CCCC1NC(C(=O)O)Cc2c1[nH]c1ccccc21 (centres undefined) | 210 to 211 °C
34 | CCCCCOc1cc(C(=O)O)cc(N)c1-c1ccccc1 | 134 to 135 °C
35 | COc1c(C(=O)O)sc(C(F)(F)F)c1SCc1ccccc1 | 146 to 147 °C
36 | CC1CC(C)(C)C(O)(CO)C1Cc1ccc(Cl)cc1 (centres undefined) | 93 to 94 °C
37 | CCC1(CCCCN2CCc3sccc3C2)C(=O)Nc2cc(F)c(Cl)cc21 (centres undefined) | 155 to 157 °C
38 | Nc1ncnc2c1c(C#CCO)nn2Cc1oc2ccccc2c(=O)c1-c1ccccc1 | 171 to 173 °C
39 | CCn1cc(C(=O)O)c(=O)c2cc(F)c(Cl)cc21 | 279 to 281 °C
40 | CCOc1nc(SC)nc(N2CCS(=O)CC2)c1C=O | 163 °C
41 | COc1ccc(C(=O)Nc2ccc3ccc(Oc4ccccc4)nc3n2)nn1 | 95 °C
42 | Nc1nc2ccc(Cl)cc2nc1N | 290 °C
43 | C/C(=C\c1ccc(C=O)cc1)c1ccc2c(c1)C(C)(C)CCO2 | 102 to 104 °C
44 | Clc1ccc(CCC(Cn2ccnc2)Sc2ccccc2Cl)s1 (centres undefined) | 121 to 122 °C
45 | CC(C)n1ccc(-c2ccc([C@H](C)N3CC[C@](CC(C)(C)O)(c4ccccc4)OC3=O)cc2)cc1=O | 134 to 139 °C
46 | CC(C)(C)c1ccc(C(=O)Nc2cc[nH]c(=O)n2)cc1 | > 260 °C
47 | CCOC(=O)C(C(=O)OCC)C(=O)C(C)Oc1ccc(Oc2ccc(C#N)cc2)cc1 (centres undefined) | 42 to 46 °C
48 | O=C(Nc1ccccc1)c1cscc1Cl | 119 to 121 °C
49 | c1ccc(-c2ccc3cnc(NCc4cccnc4)nn23)cc1 | 201 to 203 °C
50 | O=C(O)C(=O)CC(=O)c1ccc(OCc2ccccc2)cc1OCc1ccccc1 | 160 to 164 °C
51 | CCOC(=O)c1ccc(NC2(C#N)CCCCC2)cc1 | 101 to 102 °C
52 | CN(C)c1ccc(-c2ccc(C(=O)Nc3cccc(CC(=O)O)c3)o2)cc1 | 187 to 190 °C

Row | Compound | melting point
53 | CCCC(=O)N[C@H]1CC[C@H](CCN2CCC(c3cccc4c3CCO4)CC2)CC1 | 196 °C
54 | Cc1nn(-c2c(Cl)cc(C(F)(F)F)cc2Cl)c(NCC(=O)O)c1SC(F)(F)F | 168 to 170 °C
55 | CC(=Cc1ccc(N(C)C)cc1Cl)[N+](=O)[O-] | 93 to 94 °C
56 | CC(=O)CCCCCC(=O)N[C@@H](C)C(=O)N[C@H](CCC(=O)OCc1ccccc1)C(N)=O | 162 °C
57 | COC1=NC(c2cccc([N+](=O)[O-])c2)C(C(=O)OC(C)C)=C(C)N1 (centres undefined) | 130 to 132 °C
58 | N#Cc1ccc(OCc2cccc(F)c2)cc1 | 104 to 105 °C
59 | Cn1cc(-c2cccc(F)c2)c(=O)c(-c2cccc(C(F)(F)F)c2)c1 | 94 to 96 °C
60 | O=C1CN2Cc3c(O)cccc3N=C2N1 | > 280 °C
61 | CN(C1CCC(O)CC1)S(=O)(=O)c1ccc(Nc2nccc(Nc3ccc(F)cc3)n2)cc1 (centres undefined) | 203 °C
62 | CCOC(=O)c1cccc(O)c1C | 58 to 60 °C
63 | COc1cc(-c2ccc(C#N)cc2)c2nc(-c3ccc(OC)c(F)c3)cc(O)c2c1 | 248 to 250 °C
64 | [N-]=[N+]=NOS(=O)(=O)N=[N+]=[N-] | 60 °C
65 | COCc1nc2c(C(=O)c3cccnc3Oc3cccc(Cl)c3)ccc(OC)c2[nH]1 | 181 to 183 °C
66 | C=C[C@]1(C)CCc2c(C)c(OCc3ccccc3)c(C)c(C)c2O1 | 63 to 66 °C
67 | Cc1cccc(-c2ccnc3ccnn23)n1 | 126 to 127 °C
68 | NCc1ccc(-c2ccc(N(Cc3ccccc3)Cc3ccccc3)cc2)cc1 | 122 to 125 °C
69 | O=C(CCl)Nc1cc(C(=O)NC(CO)CO)cc(C(=O)NC(CO)CO)c1 | 222 to 224 °C
70 | CS(=O)(=O)c1sccc1SCc1ccccc1 | 95 to 97 °C
71 | CC(C)c1ccc(C(F)(F)C(F)(F)c2ccccc2)cc1 | 97 to 104 °C
72 | O=C(CCCCCCc1ccccc1)Oc1cc(=O)n(-c2ccccc2)c2ncccc12 | 139 to 140 °C
73 | CC(C)Oc1ccc2c(c1O)OC(C)(C)CC2=O | 114 to 116 °C
74 | N#CCCN(CCC#N)CCC#N | 59 to 61 °C
75 | CCOC(=O)Cn1ncc(-c2ccccn2)c1-c1ccccc1 | 98 to 100 °C
76 | CN1CC(=O)N(c2ccc(C(C)(C)C)cc2)C1=S | 156 to 158 °C
77 | CCOC(=O)C=Cc1ccc(OC2CCCCO2)cc1 (centres undefined) | 52 to 53 °C
78 | NS(=O)(=O)c1ccccc1C1=CCCC1 | 112 to 113 °C

Row | Compound | melting point
79 | CC(C)Nc1c(C#N)cnn1-c1ccc(Cl)c(Cl)c1Cl | 141 to 142 °C
80 | ClC1=Nc2cccc(Br)c2C2=NCCN12 | 220 to 223 °C
81 | O=C(O)C(O)C(O)C(=O)NCc1ccc2c(c1)-c1n[nH]c(=O)c3cccc(c13)O2 (centres undefined) | 181 to 185 °C
82 | O=C(NCCc1cccc2ccc(O)cc12)C1CC1 | 140 to 141 °C
83 | CCS(=O)(=O)c1cc2c(cc1OC)CCn1c3c(c(-c4cccs4)c1-2)CCCCN(C(C)(C)C)C3=O | 223 to 224 °C
84 | CCOC(=O)c1cn2c(n1)SCCC2 | 99 to 100 °C
85 | CCCn1nc(C(N)=O)cc1CC | 105 to 106 °C
86 | CC1(C)c2ccc(CCN3CCN(c4nsc5ccccc45)CC3)cc2C(C)(C)C1O (centres undefined) | 47 to 49 °C
87 | O=C(O)Cc1csc(NC(=O)C(Oc2ccc(F)cc2)c2ccc(S(=O)(=O)C3CC3)cc2)n1 (centres undefined) | 72 to 73 °C
88 | NNc1ccc([N+](=O)[O-])cc1S(N)(=O)=O | 209 to 210 °C
89 | CC(C)C(=O)c1ccc2cc(O)c(O)cc2c1 | 154 to 156 °C
90 | CCCCCN(CCC12CC3CC(CC(C3)C1)C2)C(=O)NCc1cccnc1 | 88.5 to 102 °C
91 | O=[N+]([O-])c1ccc(C=Nc2c3c(nc4ccccc24)CCCC3)cc1 | 237 to 238 °C
92 | CC(=O)Nc1nonc1-c1nc2ccccc2n1CC(=O)c1ccc(Cl)cc1 | 202 to 205 °C
93 | N#CCCC(=O)c1ccccc1 | 69 °C
94 | COC(=O)CCC(=O)c1ccc(-c2ccccc2F)cc1 | 75.5 to 77.5 °C
95 | COCCO[C@@H]1c2ccc3c(nc(C)n3C)c2O[C@H](c2ccccc2)[C@H]1OC(=O)CN(C)C | 175 °C
96 | Cc1cccc2c1N(CC(=O)C1CC1)C(=O)C(NC(=O)Nc1cccc(-c3nnn[nH]3)c1)N=C2C1CCCCC1 (centres undefined) | 227 to 233 °C
97 | COc1ccccc1N1CC(=O)Nc2c(C(N)=O)nc(-c3cccc(O)c3)nc21 | 336 to 338 °C
98 | CN(C)c1ccc2c(c1)C(=O)CC(c1ccc(O)cc1)=N2 | 321 to 323 °C
99 | C1=CC2=Nc3ccccc3OCN2C=C1 | 125 to 127 °C
100 | Cc1nc(OCC=C(F)F)c(C#N)c(N2CCc3ccccc3CC2)n1 | 158 to 159 °C
101 | Cc1cc(C)cc(Nn2c(-c3ccccc3)c(C)[nH]c2=S)c1 | 240 to 242 °C
102 | COc1ccc2c(c1)c(CC#N)cn2C(=O)OC(C)(C)C | 130 °C
103 | CS(=O)(=O)c1ccc(OCCO)cc1 | 89 to 90 °C
104 | CC(C)(C)OC(=O)NCC(=O)Nc1ccc(Nc2cccc3c2C(=O)c2ccccc2C3=O)cc1 | 171 °C
